Experimental data reported in paper PMC3283556, “The Activities of Current Antimalarial Drugs on the Life Cycle Stages of Plasmodium: A Comparative Study with Human and Rodent Parasites” (PLoS Medicine, 2012).
Where two headings read alike, the source gives them in different places.

Tests used:
[1] = test system: HepG2 cells; experiment: Growth retardation of HepG2 cells; details: for IC50: Homo sapiens, HepG2, read-out: IC50 HepG2
Description: (§1) 7.5×10^3 HepG2 cells in 50 µl of medium (1.5×10^5 cells/ml) were seeded in 384 well plates (Aurora 384 IQ-EB Black/Clear Plates) 20–26 h prior to the actual infection. 2 h prior to infection, 50 nl of compound in DMSO (0.1% final DMSO concentration per well) were transferred with a PinTool (GNF Systems) into the assay plates (10 µM final concentration). P. yoelii sporozoites were freshly dissected from infected A. stephensi mosquito salivary glands and filtered twice with a 40-µm strainer. The HepG2 cells were then infected with 8×10^3 sporozoites per well. After infection and 1-h incubation at 37°C, the cultures were washed, new media and compound added, and further incubated with 5-fold increased concentration of penicillin/streptomycin for 48 h at 37°C before exoerythrocytic forms (EEFs) quantification of infected cells by immunofluorescence.
(§2) High-content imaging of infected HepG2-CD81 cells was performed as described in Meister et al.. Wells were analysed using a custom Acapella (PerkinElmer) script parameterized for this assay. In brief, images from fields inside the well were first discarded as out of focus when the intensity in the nuclear area was too low. Then hepatic cells were counted by detecting the nuclei labelled with Hoechst 33342 and parasites were segmented using the HSP70 immuno-labelling. Morphology-based (e.g., area, roundness) and intensity-based features were calculated for each object detected including the hepatocyte nuclei and the parasites. Parasitemia was set as the ratio between parasite number (Alexa fluor positive) and the hepatocyte nuclei count, determined at the same time.
(§3) When an infected mosquito bites a host, ∼100 sporozoites may be injected into the dermis from where they rapidly invade liver cells,[33]. This infective step represents the second bottleneck during transmission and therefore another potentially vulnerable point for intervention. In the absence of a practical liver stage assay measuring the formation of P. falciparum/P. vivax liver schizonts, an equivalent assay was developed in P. yoelii and used to assess the activity of the collection of molecules against this specific stage. Specifically, P. yoelii sporozoites were dissected from the salivary glands of infected mosquitoes and were allowed to invade human hepatocarcinoma cells expressing the CD81 protein. The development of the liver schizonts was monitored by immunofluorescence staining using an HSP70 antibody specific to the parasite (Figure 4A).

[2] = test system: P. falciparum asexual blood stage parasites (strains NF54, D6, K1, W2, 7G8, TM90C2A, V1/S); experiment: [3H]-hypoxanthine incorporation growth inhibition assay, asexual blood stage; format: cell-based, Plasmodium falciparum; details: for IC50: Plasmodium falciparum; for resistance / retention of potency against resistant strains: drug-resistant strains; for fold reduction in potency: against all drug-resistant strains containing the mutated chloroquine transporter (PfCRT)
Description: In vitro antimalarial activity was measured using the [^3H]-hypoxanthine incorporation assay with various strains of P. falciparum obtained from MR4. Results were expressed as the concentration resulting in 50% inhibition (IC50).
The half-maximal inhibitory concentrations (IC50) were determined for each molecule (Table S2).
Figure 2 The potencies of selected antimalarials against asexual blood stages. Main classes of antimalarials were tested against the blood stage of seven Plasmodium falciparum strains in the [^3H]hypoxanthine incorporation assay as described in Vennerstrom et al.. The strains tested here (obtained from MR4) were two drug-sensitive strains NF54 and D6 and five drug-resistant strains: K1, resistant to chloroquine (CQ) and pyrimethamine (PYR), origin Thailand, carries mutations in genes pfmdr1, pfcrt, pfdhfr, pfdhps; W2, resistant to CQ, PYR, quinine, cycloguanil, and sulfadoxine, origin Vietnam; 7G8, resistant to CQ and PYR, origin Brazil; TM90C2A, resistant to CQ, PYR, and MFQ, origin Thailand; and V1/S, resistant to CQ, PYR and cycloguanil, origin Vietnam. Results are expressed as the concentration resulting in 50% growth inhibition (IC50).Values are means of ≥3 independent experiments. (A) Endoperoxides. (B) 4-AQs. (C) 8-AQs and amino alcohols. (D) Antifolates, antibiotics, and others.

[3] = test system: P. yoelii liver stage parasites (liver schizonts); experiment: P. yoelii liver stage assay in HepG2 cells (EEF immunofluorescence); format: cell-based, Plasmodium yoelii; details: for IC50: Plasmodium yoelii; for potency range against liver stages: dose response
Description: as §1
After washing with 1×PBS and fixation of the cells with 4% paraformaldehyde solution (EMS), membranes were permeabilised with 0.5% Triton-X-100 (Thermo Fisher Scientific) and EEFs were stained using a mouse polyclonal serum raised against the Plasmodium heat shock protein 70 (HSP70), an Alexa goat antimouse IgG, Fca-specific DyLight 649 secondary antibody (Invitrogen), and the Hoechst 33342 nucleic acid dye (Invitrogen). Stained EEFs were then quantified using the Opera Confocal High Content Screening system (PerkinElmer). Images were collected using a 20× magnification at a binning of 2 using a 365 Xeon arc lamp illumination to detect the nuclei and 635-nm laser line to excite DyLight649.
as §2, §3
Figure 4 Validation and results of anti-infectives tested against P. yoelii liver stage parasites. (A) Opera-generated images from a time point experiment using a 20× objective lens. P. yoelii parasites (red) were visualized using a mouse polyclonal HSP70 antibody, and the HepG2 cells (green) were stained with Hoechst 33342 nucleic acid dye. […] (B) A dose response plot with atovaquone from data generated from the Opera imaging system. The median areas of compound-treated parasites were compared to untreated DMSO controls to determine the degree of inhibition.

[4] = test system: P. falciparum mature gametocytes / male gamete exflagellation; experiment: P. falciparum exflagellation assay; format: cell-based, Plasmodium falciparum; details: for inhibition at 10 µM: Plasmodium falciparum
Description: After 24 h, exflagellation was triggered by a temperature decrease to ∼21°C and observed 20 min later under the microscope. Highly motile exflagellation centres were recorded for ∼50–150 adjacent fields of view and reported per 10,000 RBCs.
(A) Assays examined exflagellation (P. falciparum), ookinete formation (P. berghei), or oocyst formation (P. falciparum). All antimalarials were screened at 10 µM. (B) The biological content of the in vitro P. berghei ookinete assay spans gamete formation, fertilization, zygote development, and ookinete formation. […] (D) The in vitro P. falciparum exflagellation assay exposes mature gametocytes to antimalarials for 24 h before triggering exflagellation. […] All experiments in triplicate. (E) The in vivo P. falciparum oocyst assay differs from the P. berghei oocyst assay in that mature gametocytes were exposed to the antimalarials in culture for 24 h before feeding to mosquitoes.

[5] = HepG2, development of P. yoelii liver schizonts following infection of HepG2 cells, read-out: IC50 Parasite
[6] = HepG2, dose response, read-out: IC50 liver stage
[7] = HepG2, box linked to liver schizont, read-out: IC50 (liver schizont, Figure 5)
[8] = HepG2, dose response, median parasite area (Opera), read-out: IC50 liver stage
[9] = asexual blood stage, all parasite lines, read-out: IC50
[10] = 10 µM, 24 h exposure of mature gametocytes
[11] = 10 μM, box linked to gametocytes/exflagellation, read-out: Inhibition at 10 μM (gametocytes/exflagellation, Figure 5)
[12] = asexual blood stage, both drug-resistant and -sensitive strains, read-out: IC50
[13] = read-out: inhibition of exflagellation, 10 µM, 24 h exposure of mature gametocytes
[14] = asexual blood stage, all parasite lines

OC(c1cc(C(F)(F)F)nc2c(C(F)(F)F)cccc12)C1CCCCN1 (racemic) [racemic mefloquine, mefloquine]
IC50 [1]: 1730 ± 600 nM
CI (cytotoxicity index) ([1]; human, 48 h): 1.02
IC50 [2]: < 10 nM
IC50 [3, 5]: 1690 ± 1450 nM

CCN(CC)CCCNc1ccnc2cc(Cl)ccc12 [AQ-13]
IC50 [3, 6]: < 3000 nM

CCc1nc(N)nc(N)c1OCCCOc1ccccc1CCC(=O)O [P218]
IC50 [3, 7]: < 1000 nM
IC50 [3, 8]: < 10 nM

N=C(N)c1ccc(OCCCCCOc2ccc(C(=N)N)cc2)cc1 [Pentamidine]
IC50 [1]: 3750 ± 1100 nM
CI (cytotoxicity index) ([1]; human, 48 h): 1.52
IC50 [3, 5]: 2460 ± 570 nM

CCN(CC)Cc1cc(Nc2ccnc3cc(Cl)ccc23)ccc1O [amodiaquine]
IC50 [2, 9]: 2 to 10 nM
resistance / retention of potency against resistant strains [2]: do not lose potency when tested against chloroquine resistant strains
effect on exflagellation (words) [4, 10]: inhibited P. falciparum exflagellation
inhibition at 10 µM [4, 11]: > 60%
IC50 [3, 6]: < 3000 nM

C[C@@H]1CC[C@H]2[C@@H](C)C(=O)O[C@@H]3O[C@@]4(C)CC[C@@H]1[C@]32OO4 [artemisinin]
IC50 [2, 9]: 1 to 15 nM

C[C@H]1[C@H](N2CCS(=O)(=O)CC2)O[C@@H]2O[C@@]3(C)CC[C@H]4[C@H](C)CC[C@@H]1[C@@]24OO3 [artemisone]
IC50 [3, 7]: < 1000 nM
IC50 [3, 8]: < 100 nM

C[C@H]1[C@H](OC(=O)CCC(=O)O)O[C@@H]2O[C@@]3(C)CC[C@H]4[C@H](C)CC[C@@H]1[C@@]24OO3 [artesunate]
IC50 [2, 9]: 1 to 15 nM
IC50 [3, 7]: < 1000 nM

CC[C@H]1OC(=O)[C@H](C)[C@@H](O[C@H]2C[C@@](C)(OC)[C@@H](O)[C@H](C)O2)[C@H](C)[C@@H](O[C@@H]2O[C@H](C)C[C@H](N(C)C)[C@H]2O)[C@](C)(O)C[C@@H](C)CN(C)[C@H](C)[C@@H](O)[C@]1(C)O [azithromycin]
IC50 [2, 12]: 1000 to 10000 nM

COc1cc(NC(C)CCCNC(C)=C2CCOC2=O)c2ncccc2c1 (stereo not drawn) [bulaquine]
IC50 [2, 12]: 500 to 2500 nM

CCN(CC)CCCC(C)Nc1ccnc2cc(Cl)ccc12 (stereo not drawn) [chloroquine]
fold reduction in potency [2]: 6–100 fold
enhancement (stimulation) of exflagellation [4, 10]: at least 20%

CC1(C)N=C(N)N=C(N)N1c1ccc(Cl)cc1 [cycloguanil]
IC50 ([2]; Erythrocyte, read-out: IC50 (erythrocyte schizont, Figure 5), box linked to blood stage schizont): < 4 nM
fold loss of potency ([2]; between sensitive and resistant strains): ≥ 100 fold
IC50 [3, 7]: < 1000 nM
IC50 [3, 8]: < 10 nM

CC(=O)N(O)CCCCCNC(=O)CCC(=O)N(O)CCCCCNC(=O)CCC(=O)N(O)CCCCCN [deferoxamine]
IC50 [3, 7]: < 1000 nM
potency range against liver stages [3]: submicromolar potencies

C[C@]12CC[C@H](O)CC1=CC[C@@H]1[C@@H]2CC[C@]2(C)C(=O)CC[C@@H]12 [dehydroepiandrosterone]
IC50 ([2]; asexual blood stage, both drug-resistant and -sensitive strains): 1000 to 10000 nM

CCN(CC)CCCC(C)Nc1cc(OC)cc2cccnc12 (stereo not drawn) [diethylprimaquine]
IC50 [2, 12]: 500 to 2500 nM
inhibition at 10 µM [4, 13]: > 70%

CCN(CCO)CCCC(C)Nc1ccnc2cc(Cl)ccc12 (stereo not drawn) [hydroxychloroquine]
fold reduction in potency [2]: 6–100 fold
enhancement (stimulation) of exflagellation [4, 10]: at least 20%

CN(C)c1ccc2nc3ccc(=[N+](C)C)cc-3sc2c1 [methylene blue]
IC50 [3, 7]: < 1000 nM
IC50 [3, 8]: < 100 nM

CC(C)(C)NCc1cc(Nc2ccnc3cc(Cl)ccc23)c2c(c1O)CCCC2 [naphthoquine]
IC50 [2, 14]: 2 to 10 nM
resistance / retention of potency against resistant strains [2]: do not lose potency when tested against chloroquine resistant strains
IC50 [3, 7]: < 1000 nM
IC50 [3, 6]: < 3000 nM

Clc1ccc2c(N3CCN(CCCN4CCN(c5ccnc6cc(Cl)ccc56)CC4)CC3)ccnc2c1 [piperaquine]
IC50 [2, 14]: 2 to 10 nM
resistance / retention of potency against resistant strains [2]: do not lose potency when tested against chloroquine resistant strains

COc1cc(NC(C)CCCN)c2ncccc2c1 (stereo not drawn) [primaquine]
IC50 [2]: 500 to 2500 nM
enhancement (stimulation) of exflagellation [4, 10]: 15%

[H]/N=C(\N/C(=N/[H])Nc1ccc(Cl)cc1)NC(C)C [proguanil]
IC50 [1]: 15400 ± 3090 nM
CI (cytotoxicity index) ([1]; IC50 HepG2 compared to IC50 parasite): 1.31
IC50 [2, 12]: 1000 to 10000 nM
IC50 [3, 5]: 11800 ± 5190 nM

C=C[C@H]1C[N@@]2CC[C@H]1C[C@@H]2[C@@H](O)c1ccnc2ccc(OC)cc12 [quinidine]
IC50 [3, 7]: < 1000 nM
potency range against liver stages [3]: submicromolar potencies

Cc1cc2nc3c(=O)[nH]c(=O)nc-3n(C[C@H](O)[C@H](O)[C@H](O)CO)c2cc1C [riboflavin]
IC50 [2, 12]: 1000 to 10000 nM

Cc1cc(NS(=O)(=O)c2ccc(N)cc2)no1 [sulfamethoxazole]
inhibition at 10 µM [4, 13]: > 80%
inhibition at 10 µM [4, 11]: > 60%

CC(C)(C)NCc1ccc(Nc2ccnc3cc(Cl)ccc23)cc1O [tert-butyl-isoquine]
IC50 [2, 14]: 2 to 10 nM
resistance / retention of potency against resistant strains [2]: do not lose potency when tested against chloroquine resistant strains
effect on exflagellation (words) [4, 10]: inhibited P. falciparum exflagellation
effect on exflagellation (words) ([4]; 10 µM, 24 h exposure of mature gametocytes, listed as tert-butyl isoquine): inhibited exflagellation totally
inhibition at 10 µM [4, 11]: > 60%

COc1cc(Cc2cnc(N)nc2N)cc(OC)c1OC [trimethoprim]
IC50 [2, 12]: 1000 to 10000 nM
